Calls of active or inactive are those of the source. No cut-off for these calls is given here.
Tests used:
[1] = test system: Plasmodium yoelii nigeriensis; assay: Antimalarial activity against multi-drug resistant Plasmodium yoelii nigeriensis infected in swiss mouse model assessed as suppression of parasitemia at 96 mg/kg, po administered for 4 days relative to control; type: functional; settings: time 4 day
[2] = test system: Plasmodium yoelii nigeriensis; assay: Antimalarial activity against multi-drug resistant Plasmodium yoelii nigeriensis infected in swiss mouse model assessed as suppression of parasitemia at 96 mg/kg, IM administered for 4 days relative to control; type: functional; settings: time 4 day
[3] = test system: Plasmodium yoelii nigeriensis; assay: Antimalarial activity against multi-drug resistant Plasmodium yoelii nigeriensis infected in swiss mouse model assessed as suppression of parasitemia at 48 mg/kg, IM administered for 4 days relative to control; type: functional; settings: time 4 day
[4] = test system: Plasmodium yoelii nigeriensis; assay: Antimalarial activity against multi-drug resistant Plasmodium yoelii nigeriensis infected in swiss mouse model at 96 mg/kg, po administered for 4 days and measured within 6 to 8 days; type: functional, organism-based; settings: time 6-8 day
[5] = test system: Plasmodium yoelii nigeriensis; assay: Antimalarial activity against multi-drug resistant Plasmodium yoelii nigeriensis infected in swiss mouse model at 96 mg/kg, IM administered for 4 days and measured within 6 to 8 days; type: functional, organism-based; settings: time 6-8 day
[6] = test system: Plasmodium yoelii nigeriensis; assay: Antimalarial activity against multi-drug resistant Plasmodium yoelii nigeriensis infected in swiss mouse model at 48 mg/kg, IM administered for 4 days and measured within 6 to 8 days; type: functional, organism-based; settings: time 6-8 day
[7] = test system: Plasmodium yoelii nigeriensis; assay: Antimalarial activity against multi-drug resistant Plasmodium yoelii nigeriensis infected in swiss mouse model assessed as animal survival at 96 mg/kg, IM administered for 4 days and measured after 28 days; type: functional; settings: time 28 day
[8] = test system: Plasmodium yoelii nigeriensis; assay: Antimalarial activity against multi-drug resistant Plasmodium yoelii nigeriensis infected in swiss mouse model assessed as animal survival at 48 mg/kg, IM administered for 4 days and measured after 28 days; type: functional; settings: time 28 day
[9] = test system: Plasmodium yoelii nigeriensis; assay: Antimalarial activity against multi-drug resistant Plasmodium yoelii nigeriensis infected in swiss mouse model assessed as suppression of parasitemia at 48 mg/kg, po administered for 4 days relative to control; type: functional; settings: time 4 day
[10] = test system: Plasmodium yoelii nigeriensis; assay: Antimalarial activity against multi-drug resistant Plasmodium yoelii nigeriensis infected in swiss mouse model assessed as animal survival at 96 mg/kg, po administered for 4 days and measured after 28 days; type: functional; settings: time 28 day
[11] = test system: Plasmodium yoelii nigeriensis; assay: Antimalarial activity against multi-drug resistant Plasmodium yoelii nigeriensis infected in swiss mouse model assessed as suppression of parasitemia at 24 mg/kg, IM administered for 4 days relative to control; type: functional; settings: time 4 day
[12] = test system: Plasmodium yoelii nigeriensis; assay: Antimalarial activity against multi-drug resistant Plasmodium yoelii nigeriensis infected in swiss mouse model assessed as suppression of parasitemia at 24 mg/kg, po administered for 4 days relative to control; type: functional; settings: time 4 day
[13] = test system: Plasmodium yoelii nigeriensis; assay: Antimalarial activity against multi-drug resistant Plasmodium yoelii nigeriensis infected in swiss mouse model at 48 mg/kg, po administered for 4 days and measured within 6 to 8 days; type: functional, organism-based; settings: time 6-8 day
[14] = test system: Plasmodium yoelii nigeriensis; assay: Antimalarial activity against multi-drug resistant Plasmodium yoelii nigeriensis infected in swiss mouse model assessed as suppression of parasitemia by measuring fold change at 48 mg/kg, po administered for 4 days relative to artemisinin; type: functional; settings: time 4 day

Row | SMILES | Activity [1] [%] | Activity [2] [%] | Activity [4] | Activity [5] | Activity [9] [%] | other results
1 | C=C(c1ccc(OC(C)(C)CO)cc1)C1COC2(CCC(Nc3ccc(Br)cc3)CC2)OO1 (stereo not drawn) | 100 | 100 | inactive | Active | – | Activity [3]: 100%; Activity [6]: Active; Survival [7]: >28 days; Survival [8]: >28 days
2 | C=C(c1ccc(OC(C)(C)CNc2ccc(C(F)(F)F)cc2)cc1)C1COC2(CCCC2)OO1 (stereo not drawn) | 100 | 65 | Active | inactive | 100 | Survival [10]: >28 days
3 | C=C(c1ccc(OC(C)(C)CNc2ccc(C)cc2)cc1)C1COC2(CCCCC2)OO1 (stereo not drawn) | 100 | 99 | – | – | – | –
4 | C=C(c1ccc(OC(C)(C)CO)cc1)C1COC2(CCCC2)OO1 (stereo not drawn) | 53 | 98 | inactive | – | – | –
5 | C[C@@H]1CC[C@H]2[C@@H](C)C(=O)O[C@@H]3O[C@@]4(C)CC[C@@H]1[C@]32OO4 [ARTEMISININ] | 100 | – | inactive | – | – | Activity [11]: 100%; Activity [3]: 100%; Activity [6]: Active
6 | C=C(c1ccc(OC(C)(C)CO)cc1)C1COC2(OO1)C1CC3CC(C1)CC2C3 (stereo not drawn) | 100 | 100 | Active | Active | 100 | Activity [3]: 100%; Activity [6]: Active
7 | C=C(c1ccc(OC(C)(C)CNc2ccccc2)cc1)C1COC2(OO1)C1CC3CC(C1)CC2C3 (stereo not drawn) | 100 | – | Active | – | 100 | Activity [12]: 100%; Activity [13]: Active; fold change (FC) [14]: 2
8 | C=C(c1ccc(OC(C)(C)CNc2ccc(F)cc2)cc1)C1COC2(OO1)C1CC3CC(C1)CC2C3 (stereo not drawn) | 100 | – | Active | – | 100 | Activity [12]: 100%; Activity [13]: Active; fold change (FC) [14]: 2
9 | C=C(c1ccc(OC(C)(C)CO)cc1)C1COC2(CCC(=O)CC2)OO1 (stereo not drawn) | 60 | 53 | inactive | inactive | – | –
10 | C=C(c1ccc(OC(C)(C)CO)cc1)C1COC2(CCCCC2)OO1 (stereo not drawn) | 68 | 100 | inactive | – | – | –
11 | C=C(c1ccc(OC(C)(C)CNc2ccc(Br)cc2)cc1)C1COC2(CCCCC2)OO1 (stereo not drawn) | 100 | 100 | Active | – | – | Survival [10]: >28 days
12 | C=C(c1ccc(OC(C)(C)CNc2cc(Cl)cc(Cl)c2)cc1)C1COC2(CCCC2)OO1 (stereo not drawn) | 100 | – | Active | – | 100 | Survival [10]: >28 days

Source: ChEMBL document CHEMBL5584209, “Novel amino- and hydroxy-functionalized 1,2,4-trioxanes and their antimalarial activity against multidrug-resistant Plasmodium yoelii nigeriensis in Swiss mice via intramuscular and oral route” (2024)
